# Experimental data published in patent US20140357553A1, “NUTRITIONAL COMPOSITION FOR WOUND HEALING” (Nestec S.A., priority 2003, published 2014).
# System: Normal human fibroblasts
# Protocol: Normal human fibroblasts were trypsinised and seeded in 12 well plates at a density of […]. When confluent, the cells were transferred to a culture medium with an amino acid distribution and concentrations designed to mimic those in human serum as closely as possible. The cell cultures were divided into two categories, a control culture in which the culture medium contained 0.201 mM proline and an experimental sample in which the culture medium contained 0.592 mM proline. After 24 hours fibroblast-conditioned medium containing 100 microgram/ml beta-aminoproprionitrile to prevent cross-linking of collagen molecules in the cultures was collected. The conditioned medium was dotblotted to a nitrocellulose membrane and probed for collagen type I content with a polyclonal immune-absorbed antibody. The value shown for the proline-supplemented samples is relative to the controls set at 100%.
smiles,measurement,setting,value
"O=C(O)[C@@H]1CCCN1 [Proline, proline]",% of control value (collagen type I content),"0.502 mM proline in culture medium vs control medium with 0.201 mM proline set at 100%, conditioned medium collected after 24 hours",150% ± 21.9%
same,increase in collagen synthesis,"human fibroblasts, proline-supplemented medium vs control",50%
